Reference: patent publication US9718823B2, “2, 6-Di-nitrogen-containing substituted purine derivative, and preparation method, pharmaceutical composition and use thereof” (Zhejiang Medicine Co., Ltd. Xinchang Pharmaceutical Factory, priority 2013, dated 2017)

Columns and labels:
Assay type in all cases: biochemical
PI3Kδ = biological target: T1, PI3Kδ (Homo sapiens, UniProt O00329); experiment: Inhibitory activity to PI3K δ, PI 3-Kinase (human) HTRF Assay kit; details: read-out: Inhibition rate % to PI3Kδ; for inhibition at 1 µM: 1 μM (Table 7); for inhibition at 10 µM: 10 μM (Table 7)
T1 construct: purchased Millipore 14-604
Method: Study on the inhibitory activity of the compounds of present invention to PI 3κα, PI3κδ and PI3κγ.
(§1) PI 3-Kinase (human) HTRF™ Assay kit (Cat.33-017, Millipore)
For example, 10 μL DTT is added into 500 μL 4× Reaction Buffer, and water is added to 1.5 mL.
The Test compounds are dissolved with DMSO to 1 mM as storage liquid. 2 μL of each of storage liquid is added into 48 μL ddH2O, to obtain the 40 μM compounds solution containing 4% DMSO. After mixing, 3 μL of each of the solution is added into 27 μL 4% DMSO (in ddH2O) to obtain the 4 μM compounds solution. […]
The screening concentration of PI 3k δ kinase: 2 ng/well,
(§2) Kinase is diluted with 2×PIP2 operating fluid, the concentration of kinase operating fluid is 2 times of screening concentration.
The concentration of ATP is 100 μM in 20 μL kinase reaction system.
(§3) Stop A and Stop B are mixed according to the proportion of 3:1, and are placed for 2 hours at room temperature to obtain the stop solution available.
(§4) DM C, DM A and DM B are mixed according to the proportion of 18:1:1, and are placed for 2 hours at room temperature to obtain the detection solution available.

PDGFR β enzyme = biological target: T2, PDGFR β enzyme (Homo sapiens, UniProt P09619); experiment: Inhibitory activity to PDGFR β enzyme, HTRF kinEASE TK kit; details: read-out: Inhibition rate % (PDGFR β)
T2 construct: purchased Invitrogen P3082
Method: HTRF kinEASE TK (Cat.62TK0PEC, Cisbio)
PDGFR β enzyme (Cat.P3082, Invitrogen)
1 mL 1×Kinase Buffer includes 200 μL 5×Enzyme buffer, 5 μL 1M MgCl2, 1 μL 1M DTT, 1 μL 1M MnCl2, 20 μL 2500 nM SEB, 773 μL ddH2O.
TK-Substrate and ATP are diluted to 2.5 times of reaction concentration with 1×PDGFR β Kinase Buffer.
5×PDGFR β enzyme working solution is prepared with 1×PDGFR β kinase buffer.
4×Sa-XL665 working solution is prepared with Detection Buffer.
TK-Ab-Cryptate is diluted 100 times with Detection Buffer to use as working solution.

PI3 K γ = biological target: T3, PI3 K γ (Homo sapiens, UniProt P48736); experiment: Inhibitory activity to PI3K γ, PI 3-Kinase (human) HTRF Assay kit; details: read-out: Inhibition rate % to PI3 K γ
T3 construct: purchased Biology, Medicilon
From the text: (§5) Study on the inhibitory activity of the compounds of present invention to PI 3κα, PI3κδ and PI3κγ. Two or three concentrations of the compounds are selected to preliminary screening to calculate respectively the activity inhibition rate of the compounds of corresponding concentrations to enzyme, then the compounds with better activity are selected by preliminary screening for IC50 test.
as §1
PI 3k γ (Biology, Medicilon)
(§6) 4× Reaction Buffer (Cat.33-002, Millipore) is diluted with ddH2O to 1.33×, and 1M DTT is added to make the final concentration as 6.67 mM. For example, 10 μL DTT is added into 500 μL 4× Reaction Buffer, and water is added to 1.5 mL.
(§7) The Test compounds are dissolved with DMSO to 1 mM as storage liquid. 2 μL of each of storage liquid is added into 48 μL ddH2O, to obtain the 40 μM compounds solution containing 4% DMSO. After mixing, 3 μL of each of the solution is added into 27 μL 4% DMSO (in ddH2O) to obtain the 4 μM compounds solution. 5 μL of each dilute solution is added into 384-well plates, then the final concentration of the compounds in the 20 μL final kinase reaction system is 10 μM and 1 μM respectively contained 1% DMSO. The dilution methods of compounds are similar to the preliminary screening in IC50 test.
(§8) 2×PIP2 working fluid is prepared with 1.33× reaction buffer to the final concentration of 20 μM.
The screening concentration of PI 3k γ kinase: 80 ng/well,
as §2
(§9) 10 mM ATP is diluted with 1.33× reaction buffer to 400 μM. The concentration of ATP is 100 μM in 20 μL kinase reaction system.
as §3, §4

PI3K α = biological target: T4, PI3K α (Homo sapiens, UniProt P42336); experiment: Inhibitory activity to PI3K α, PI 3-Kinase (human) HTRF Assay kit; details: read-out: % Inhibition Rate to PI3K α
T4 construct: purchased Millipore 14-602
From the text: as §5, §1
PI 3k α (Cat.14-602, Millipore)
as §6, §7, §8
The screening concentration of PI 3k α kinase: 8 ng/well,
as §2, §9, §3, §4

T3 sequence (P48736 whole entry): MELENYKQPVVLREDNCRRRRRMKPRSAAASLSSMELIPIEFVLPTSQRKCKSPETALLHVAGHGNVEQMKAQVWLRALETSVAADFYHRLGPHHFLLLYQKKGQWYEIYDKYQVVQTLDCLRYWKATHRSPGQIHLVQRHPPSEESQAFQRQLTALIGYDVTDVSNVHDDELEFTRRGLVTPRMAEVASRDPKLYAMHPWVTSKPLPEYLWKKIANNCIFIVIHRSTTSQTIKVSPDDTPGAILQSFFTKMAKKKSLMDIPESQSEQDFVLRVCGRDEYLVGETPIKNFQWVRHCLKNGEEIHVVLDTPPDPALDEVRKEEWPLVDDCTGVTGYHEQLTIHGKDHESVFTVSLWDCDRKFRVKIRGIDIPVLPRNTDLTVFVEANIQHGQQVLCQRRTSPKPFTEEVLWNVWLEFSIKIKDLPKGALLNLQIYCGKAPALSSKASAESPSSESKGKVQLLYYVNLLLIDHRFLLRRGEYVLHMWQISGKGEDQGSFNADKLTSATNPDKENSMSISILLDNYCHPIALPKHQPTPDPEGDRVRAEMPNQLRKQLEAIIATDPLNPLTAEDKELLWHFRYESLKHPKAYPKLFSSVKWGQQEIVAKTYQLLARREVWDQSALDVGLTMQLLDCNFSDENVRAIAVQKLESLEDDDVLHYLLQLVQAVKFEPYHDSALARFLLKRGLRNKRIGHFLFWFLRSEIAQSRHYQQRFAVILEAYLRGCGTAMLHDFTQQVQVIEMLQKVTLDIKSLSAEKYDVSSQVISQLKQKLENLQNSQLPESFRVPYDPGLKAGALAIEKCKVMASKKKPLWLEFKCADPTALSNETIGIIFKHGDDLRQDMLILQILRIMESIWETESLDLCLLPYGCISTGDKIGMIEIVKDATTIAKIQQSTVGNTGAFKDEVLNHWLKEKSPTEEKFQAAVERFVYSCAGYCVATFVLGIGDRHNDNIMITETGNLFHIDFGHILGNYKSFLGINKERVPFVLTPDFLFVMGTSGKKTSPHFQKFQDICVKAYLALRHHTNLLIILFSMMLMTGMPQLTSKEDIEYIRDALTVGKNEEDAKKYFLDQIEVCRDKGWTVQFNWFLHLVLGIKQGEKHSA
T1 sequence (O00329 whole entry): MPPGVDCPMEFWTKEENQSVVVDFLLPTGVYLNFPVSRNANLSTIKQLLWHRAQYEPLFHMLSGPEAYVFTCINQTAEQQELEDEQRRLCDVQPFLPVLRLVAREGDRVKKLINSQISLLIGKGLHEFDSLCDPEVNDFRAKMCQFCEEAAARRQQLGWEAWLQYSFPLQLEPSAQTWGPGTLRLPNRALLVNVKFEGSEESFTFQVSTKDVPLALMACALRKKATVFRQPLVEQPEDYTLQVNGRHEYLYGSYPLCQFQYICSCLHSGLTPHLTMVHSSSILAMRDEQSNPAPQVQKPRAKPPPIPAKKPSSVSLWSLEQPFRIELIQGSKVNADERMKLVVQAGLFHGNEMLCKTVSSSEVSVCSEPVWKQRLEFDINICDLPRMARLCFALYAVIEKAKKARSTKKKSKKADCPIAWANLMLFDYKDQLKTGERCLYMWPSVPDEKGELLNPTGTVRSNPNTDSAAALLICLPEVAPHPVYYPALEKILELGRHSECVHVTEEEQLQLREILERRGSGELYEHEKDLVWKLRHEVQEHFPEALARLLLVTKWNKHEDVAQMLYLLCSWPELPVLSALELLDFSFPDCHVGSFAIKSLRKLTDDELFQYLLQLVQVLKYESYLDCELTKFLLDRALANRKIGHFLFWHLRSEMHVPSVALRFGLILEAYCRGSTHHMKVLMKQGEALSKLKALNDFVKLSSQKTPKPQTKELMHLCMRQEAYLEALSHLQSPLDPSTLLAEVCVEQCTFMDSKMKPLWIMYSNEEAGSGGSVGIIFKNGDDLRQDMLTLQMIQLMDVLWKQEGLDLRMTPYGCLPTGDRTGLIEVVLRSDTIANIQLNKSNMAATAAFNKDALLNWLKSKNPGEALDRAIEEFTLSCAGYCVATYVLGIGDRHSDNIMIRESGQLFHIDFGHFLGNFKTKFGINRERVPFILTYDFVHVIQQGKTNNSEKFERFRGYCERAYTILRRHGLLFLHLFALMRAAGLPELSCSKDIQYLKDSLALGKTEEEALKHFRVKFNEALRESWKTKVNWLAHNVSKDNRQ
T1 sequence (P27986 whole entry partner): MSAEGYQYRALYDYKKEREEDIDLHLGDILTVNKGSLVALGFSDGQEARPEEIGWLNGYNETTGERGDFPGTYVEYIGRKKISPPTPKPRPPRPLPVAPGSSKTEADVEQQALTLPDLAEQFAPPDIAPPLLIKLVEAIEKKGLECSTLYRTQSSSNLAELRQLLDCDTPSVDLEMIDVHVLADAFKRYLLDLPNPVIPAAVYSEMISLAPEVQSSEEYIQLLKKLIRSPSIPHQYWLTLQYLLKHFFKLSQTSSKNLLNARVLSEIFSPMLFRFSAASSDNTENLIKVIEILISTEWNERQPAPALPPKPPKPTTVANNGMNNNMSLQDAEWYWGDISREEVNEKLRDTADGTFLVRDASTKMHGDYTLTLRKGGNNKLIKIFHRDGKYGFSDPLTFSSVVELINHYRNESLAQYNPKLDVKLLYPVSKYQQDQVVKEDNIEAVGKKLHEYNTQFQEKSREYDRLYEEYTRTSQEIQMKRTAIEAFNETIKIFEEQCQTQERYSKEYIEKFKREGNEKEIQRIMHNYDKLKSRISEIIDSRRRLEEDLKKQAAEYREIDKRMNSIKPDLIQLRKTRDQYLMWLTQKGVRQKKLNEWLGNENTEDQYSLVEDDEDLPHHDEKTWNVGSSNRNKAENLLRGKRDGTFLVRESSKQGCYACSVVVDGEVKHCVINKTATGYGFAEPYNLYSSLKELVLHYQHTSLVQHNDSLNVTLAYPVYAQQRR
T2 sequence (P09619 33-1106): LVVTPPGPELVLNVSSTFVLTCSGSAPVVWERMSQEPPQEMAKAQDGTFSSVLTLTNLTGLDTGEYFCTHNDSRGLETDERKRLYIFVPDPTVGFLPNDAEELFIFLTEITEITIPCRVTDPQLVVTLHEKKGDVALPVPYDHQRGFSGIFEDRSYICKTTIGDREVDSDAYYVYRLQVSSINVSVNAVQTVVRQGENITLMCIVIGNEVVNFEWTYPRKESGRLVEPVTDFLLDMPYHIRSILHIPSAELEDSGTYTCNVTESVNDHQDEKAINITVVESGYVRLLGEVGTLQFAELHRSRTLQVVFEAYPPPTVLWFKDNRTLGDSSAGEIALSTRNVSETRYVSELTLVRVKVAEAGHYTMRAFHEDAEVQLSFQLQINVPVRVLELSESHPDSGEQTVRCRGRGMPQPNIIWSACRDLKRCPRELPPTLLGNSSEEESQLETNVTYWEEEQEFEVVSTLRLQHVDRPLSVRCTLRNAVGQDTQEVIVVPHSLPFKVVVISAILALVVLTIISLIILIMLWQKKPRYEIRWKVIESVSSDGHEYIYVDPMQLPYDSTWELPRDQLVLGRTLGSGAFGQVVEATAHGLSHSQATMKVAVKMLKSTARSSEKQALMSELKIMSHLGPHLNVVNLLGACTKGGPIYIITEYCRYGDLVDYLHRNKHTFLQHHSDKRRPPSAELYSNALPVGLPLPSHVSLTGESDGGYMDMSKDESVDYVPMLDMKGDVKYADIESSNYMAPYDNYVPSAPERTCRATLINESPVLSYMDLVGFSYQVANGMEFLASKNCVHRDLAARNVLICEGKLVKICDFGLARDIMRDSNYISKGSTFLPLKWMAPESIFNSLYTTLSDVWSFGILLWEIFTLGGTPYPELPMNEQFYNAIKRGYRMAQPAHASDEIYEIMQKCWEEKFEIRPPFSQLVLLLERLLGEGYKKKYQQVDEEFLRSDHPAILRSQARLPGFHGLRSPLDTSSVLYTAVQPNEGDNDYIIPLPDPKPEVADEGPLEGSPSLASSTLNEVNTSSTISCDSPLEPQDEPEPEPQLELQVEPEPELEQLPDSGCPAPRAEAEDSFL
T4 sequence (P42336 whole entry): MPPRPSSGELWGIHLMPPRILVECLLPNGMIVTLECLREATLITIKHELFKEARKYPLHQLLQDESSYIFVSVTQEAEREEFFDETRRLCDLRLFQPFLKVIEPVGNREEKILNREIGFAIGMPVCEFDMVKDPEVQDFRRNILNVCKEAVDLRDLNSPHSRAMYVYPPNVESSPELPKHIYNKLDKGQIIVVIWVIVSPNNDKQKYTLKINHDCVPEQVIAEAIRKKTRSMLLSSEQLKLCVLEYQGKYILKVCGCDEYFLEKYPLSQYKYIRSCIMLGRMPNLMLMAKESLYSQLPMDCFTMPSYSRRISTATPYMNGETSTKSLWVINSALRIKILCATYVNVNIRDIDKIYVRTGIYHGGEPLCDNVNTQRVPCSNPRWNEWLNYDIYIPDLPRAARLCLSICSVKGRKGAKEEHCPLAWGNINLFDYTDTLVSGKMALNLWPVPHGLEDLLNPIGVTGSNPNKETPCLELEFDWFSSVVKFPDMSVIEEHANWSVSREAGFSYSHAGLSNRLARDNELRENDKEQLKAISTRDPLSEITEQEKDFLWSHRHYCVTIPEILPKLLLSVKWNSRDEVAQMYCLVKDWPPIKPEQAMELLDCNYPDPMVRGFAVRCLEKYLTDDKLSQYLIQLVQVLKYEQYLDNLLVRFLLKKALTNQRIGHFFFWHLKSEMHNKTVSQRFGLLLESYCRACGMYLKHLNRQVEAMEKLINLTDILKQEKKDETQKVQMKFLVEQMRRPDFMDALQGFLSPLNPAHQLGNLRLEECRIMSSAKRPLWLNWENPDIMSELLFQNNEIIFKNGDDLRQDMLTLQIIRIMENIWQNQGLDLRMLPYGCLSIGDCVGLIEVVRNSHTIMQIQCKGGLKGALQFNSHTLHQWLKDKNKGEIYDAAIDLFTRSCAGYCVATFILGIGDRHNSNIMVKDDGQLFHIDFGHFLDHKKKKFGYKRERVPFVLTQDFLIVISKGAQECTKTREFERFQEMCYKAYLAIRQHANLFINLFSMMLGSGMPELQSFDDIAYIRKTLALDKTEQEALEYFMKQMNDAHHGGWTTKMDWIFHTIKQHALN
T4 sequence (P27986 whole entry partner): as the sequence (P27986 whole entry partner) above

SMILES	inhibition at 1 µM (PI3Kδ) [%]	inhibition at 10 µM (PI3Kδ) [%]	inhibition at 1 µM (PDGFR β enzyme) [%]	inhibition at 10 µM (PDGFR β enzyme) [%]	inhibition at 1 µM (PI3 K γ) [%]	inhibition at 10 µM (PI3 K γ) [%]	inhibition at 1 µM (PI3K α) [%]	inhibition at 10 µM (PI3K α) [%]
Fc1cccc(-c2ccnc3ccc(Nc4nc(NC5CC5)c5nc[nH]c5n4)cc23)c1 [MED1007-64, N6-cyclopropyl-N2-(4-(3-fluorophenyl)quinoline-6-yl)-9H-purine-2,6-diamine]	14.1	88.7	-3.26	20.1	-4.23	15.9	–	–
FC(F)(F)Cn1cnc2c(NC3CC3)nc(Nc3ccc4nccc(-c5ccccc5)c4c3)nc21 [MED1007-65, N6-cyclopropyl-N2-(4-phenylquinoline-6-yl)-9-(2,2,2-trifluoroethyl)-9H-purine-2,6-diamine]	7.48	38.4	21.5	14	1.54	37.2	0.69	10.2
c1ccc(-c2ccnc3ccc(Nc4nc(NC5CC5)c5ncn(C6CCNCC6)c5n4)cc23)cc1 [MED1007-66, N6-cyclopropyl-N2-(4-phenylquinoline-6-yl)-9-(piperidine-4-yl)-9H-purine-2,6-diamine]	4.75	19.8	17	14.5	1.48	-2.46	-2.28	-4.35
COCCCNc1nc(Nc2ccc3nccc(-c4ccccc4)c3c2)nc2[nH]cnc12 [MED1007-67, N6-(3-methoxypropyl)-N2-(4-phenylquinoline-6-yl)-9H-purine-2,6-diamine]	11.3	32	22.2	18.7	0.71	10.2	3.77	37.2
Fc1ccc(-c2ccnc3ccc(Nc4nc(NC5CCC5)c5nc[nH]c5n4)cc23)cc1 [MED1007-72, N6-cyclobutyl-N2-(4-(4-fluorophenyl)quinoline-6-yl)-9H-purine-2,6-diamine]	33.9	89.5	7.25	2.5	2.15	42.7	8.78	65.9
CCOc1cccc(-c2ccnc3ccc(Nc4nc(NC5CC5)c5nc[nH]c5n4)cc23)c1 [MED1007-83, N6-cyclopropyl-N2-(4-(3-ethoxyphenyl)quinoline-6-yl)-9H-purine-2,6-diamine]	22.7	68.5	4.5	7.6	5.93	24	36.2	87.6
COc1ccc(-c2ccnc3ccc(Nc4nc(NC5CC5)c5nc[nH]c5n4)cc23)cc1OC [MED1007-84, N6-cyclopropyl-N2-(4-(3,4-dimethoxyphenyl)quinoline-6-yl)-9H-purine-2,6-diamine]	71.8	101	-8.59	13.4	26.6	34.2	58.7	99.2
c1cc(-c2ccc3c(c2)OCO3)c2cc(Nc3nc(NC4CC4)c4nc[nH]c4n3)ccc2n1 [MED1007-85, N2-(4-(benzo[1,3]-dioxole-5-yl)quinoline-6-yl)-N6-cyclopropane-9H-purine-2,6-diamine]	54.1	113	-3.44	29.8	16.8	41.9	66.2	90.1

Other lines, results leading:

inhibition at 1 µM (PI3Kδ) [%]	inhibition at 10 µM (PI3Kδ) [%]	inhibition at 1 µM (PDGFR β enzyme) [%]	inhibition at 10 µM (PDGFR β enzyme) [%]	inhibition at 1 µM (PI3 K γ) [%]	inhibition at 10 µM (PI3 K γ) [%]	inhibition at 1 µM (PI3K α) [%]	inhibition at 10 µM (PI3K α) [%]	SMILES
20.7	42.3	18.7	11.7	-0.02	10.8	7.74	51.9	COCCNc1nc(Nc2ccc3nccc(-c4ccccc4)c3c2)nc2[nH]cnc12 [MED1007-68, N6-(2-methoxyethyl)-N2-(4-phenylquinoline-6-yl)-9H-purine-2,6-diamine]
28.9	36.4	11.7	31.8	1.27	21.1	38.8	78.2	OCCNc1nc(Nc2ccc3nccc(-c4ccccc4)c3c2)nc2[nH]cnc12 [MED1007-69, 2-(2-(4-phenylquinoline-6-ylamino)-9H-purine-6-ylamino) ethanol]
41	51.6	33.4	73	5.26	10.8	26.6	62.5	NCCNc1nc(Nc2ccc3nccc(-c4ccccc4)c3c2)nc2[nH]cnc12 [MED1007-70, N6-(2-aminoethyl 1)-N2-(4-phenylquinoline-6-yl)-9H-purine-2,6-diamine]
24.4	64.4	9.74	4.5	2.55	47.4	10.4	75	COc1cccc(-c2ccnc3ccc(Nc4nc(NC5CCC5)c5nc[nH]c5n4)cc23)c1 [MED1007-71, N6-cyclobutyl-N2-(4-(3-methoxyphenyl)quinoline-6-yl)-9H-purine-2,6-diamine]
6.41	66.5	17	35	5.49	28.4	29.7	66.1	OCCCNc1nc(Nc2ccc3nccc(-c4ccccc4)c3c2)nc2[nH]cnc12 [MED1007-73, 3-(2-(4-phenylquinoline-6-ylamino)-9H-purine-6-ylamino) propyl-1-ol]
10.9	42.6	13.2	8.74	6.93	10.9	11.1	51.3	c1ccc(-c2ccnc3ccc(Nc4nc(NC5CCC5)c5nc[nH]c5n4)cc23)cc1 [MED1007-75, N6-cyclobutyl-N2-(4-phenylquinoline-6-yl)-9H-purine-2,6-diamine]
32.9	89.1	–	–	–	–	24.4	97.4	c1ccc(-c2ccnc3ccc(Nc4nc(NC5CCCC5)c5nc[nH]c5n4)cc23)cc1 [MED1007-106, N6-cyclopentyl-N2-(4-phenylquinoline-6-yl)-9H-purine-2,6-diamine]
29.3	119	–	–	–	–	29.9	65.8	c1ccc(-c2ccnc3ccc(Nc4nc(OC5CCCCC5)c5nc[nH]c5n4)cc23)cc1 [MED1007-107, N-(6-cyclohexyloxy-9H-purine-2-yl)-4-phenyl quinoline-6-amine]
